What was measured:
Test in all cases: biochemical
[1] = target: T1, panel of 374 wild-type kinases (Homo sapiens, UniProt Q13043); conditions: read-out: % Enzyme Activity (relative to DMSO controls), MST1/STK4
T1 construct: purchased Reaction Biology Corporation
T1 sequence (Q13043 1-487): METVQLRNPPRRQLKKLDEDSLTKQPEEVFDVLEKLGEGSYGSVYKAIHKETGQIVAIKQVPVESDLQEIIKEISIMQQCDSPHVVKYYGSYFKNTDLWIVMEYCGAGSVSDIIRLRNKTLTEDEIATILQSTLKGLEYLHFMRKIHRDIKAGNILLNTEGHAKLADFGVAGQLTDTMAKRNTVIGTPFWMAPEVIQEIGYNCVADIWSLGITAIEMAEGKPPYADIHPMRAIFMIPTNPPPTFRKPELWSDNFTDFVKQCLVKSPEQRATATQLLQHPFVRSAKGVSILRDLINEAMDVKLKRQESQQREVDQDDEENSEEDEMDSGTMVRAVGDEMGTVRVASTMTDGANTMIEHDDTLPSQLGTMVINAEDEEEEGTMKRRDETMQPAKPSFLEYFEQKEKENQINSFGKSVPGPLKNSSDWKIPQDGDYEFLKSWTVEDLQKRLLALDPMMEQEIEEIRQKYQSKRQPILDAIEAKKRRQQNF

[2] = target: T2, panel of 374 wild-type kinases (Homo sapiens, UniProt Q16644); conditions: read-out: % Enzyme Activity (relative to DMSO controls), MAPKAPK3
T2 construct: purchased Reaction Biology Corporation
T2 sequence (Q16644 whole entry): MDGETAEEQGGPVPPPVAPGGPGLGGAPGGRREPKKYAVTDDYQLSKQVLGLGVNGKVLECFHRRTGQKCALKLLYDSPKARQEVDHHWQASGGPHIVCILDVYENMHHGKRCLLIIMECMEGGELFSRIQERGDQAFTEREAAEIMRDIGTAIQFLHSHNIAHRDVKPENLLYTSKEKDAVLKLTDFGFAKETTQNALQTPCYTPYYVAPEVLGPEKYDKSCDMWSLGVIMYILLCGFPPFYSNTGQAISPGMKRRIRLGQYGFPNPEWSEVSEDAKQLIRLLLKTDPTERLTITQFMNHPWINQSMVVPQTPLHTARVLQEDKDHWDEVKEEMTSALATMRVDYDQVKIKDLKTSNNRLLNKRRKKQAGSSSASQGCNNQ

[3] = target: T3, panel of 374 wild-type kinases (Homo sapiens, UniProt Q16832); conditions: read-out: % Enzyme Activity (relative to DMSO controls), DDR2
T3 construct: purchased Reaction Biology Corporation
T3 sequence (Q16832 22-855): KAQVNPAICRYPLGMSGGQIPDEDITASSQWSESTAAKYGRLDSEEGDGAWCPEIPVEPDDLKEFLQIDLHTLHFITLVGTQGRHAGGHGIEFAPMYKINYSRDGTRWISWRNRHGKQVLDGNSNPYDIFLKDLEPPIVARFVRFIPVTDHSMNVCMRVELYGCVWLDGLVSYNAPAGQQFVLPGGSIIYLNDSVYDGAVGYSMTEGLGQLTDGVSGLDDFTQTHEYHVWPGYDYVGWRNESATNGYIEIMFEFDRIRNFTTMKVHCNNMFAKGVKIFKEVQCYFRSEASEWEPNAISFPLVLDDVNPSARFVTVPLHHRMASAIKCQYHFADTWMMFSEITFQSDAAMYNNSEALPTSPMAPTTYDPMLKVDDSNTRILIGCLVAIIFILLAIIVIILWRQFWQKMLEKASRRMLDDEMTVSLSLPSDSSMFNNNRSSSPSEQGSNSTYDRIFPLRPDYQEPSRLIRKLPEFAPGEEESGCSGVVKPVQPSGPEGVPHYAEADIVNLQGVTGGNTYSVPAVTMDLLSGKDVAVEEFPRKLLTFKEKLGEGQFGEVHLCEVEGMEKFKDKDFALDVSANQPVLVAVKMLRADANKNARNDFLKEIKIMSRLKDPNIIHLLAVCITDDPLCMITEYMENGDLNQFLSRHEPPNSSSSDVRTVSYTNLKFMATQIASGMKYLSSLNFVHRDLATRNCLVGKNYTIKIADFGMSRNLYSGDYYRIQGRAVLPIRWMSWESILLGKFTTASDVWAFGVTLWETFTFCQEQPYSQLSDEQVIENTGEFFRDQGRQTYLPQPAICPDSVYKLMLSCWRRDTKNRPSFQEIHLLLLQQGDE

[4] = target: T4, panel of 374 wild-type kinases (Homo sapiens, UniProt Q5TCY1); conditions: kinase TTBK1, read-out: % Enzyme Activity (relative to DMSO controls)
T4 construct: purchased Reaction Biology Corporation
T4 sequence (Q5TCY1 whole entry): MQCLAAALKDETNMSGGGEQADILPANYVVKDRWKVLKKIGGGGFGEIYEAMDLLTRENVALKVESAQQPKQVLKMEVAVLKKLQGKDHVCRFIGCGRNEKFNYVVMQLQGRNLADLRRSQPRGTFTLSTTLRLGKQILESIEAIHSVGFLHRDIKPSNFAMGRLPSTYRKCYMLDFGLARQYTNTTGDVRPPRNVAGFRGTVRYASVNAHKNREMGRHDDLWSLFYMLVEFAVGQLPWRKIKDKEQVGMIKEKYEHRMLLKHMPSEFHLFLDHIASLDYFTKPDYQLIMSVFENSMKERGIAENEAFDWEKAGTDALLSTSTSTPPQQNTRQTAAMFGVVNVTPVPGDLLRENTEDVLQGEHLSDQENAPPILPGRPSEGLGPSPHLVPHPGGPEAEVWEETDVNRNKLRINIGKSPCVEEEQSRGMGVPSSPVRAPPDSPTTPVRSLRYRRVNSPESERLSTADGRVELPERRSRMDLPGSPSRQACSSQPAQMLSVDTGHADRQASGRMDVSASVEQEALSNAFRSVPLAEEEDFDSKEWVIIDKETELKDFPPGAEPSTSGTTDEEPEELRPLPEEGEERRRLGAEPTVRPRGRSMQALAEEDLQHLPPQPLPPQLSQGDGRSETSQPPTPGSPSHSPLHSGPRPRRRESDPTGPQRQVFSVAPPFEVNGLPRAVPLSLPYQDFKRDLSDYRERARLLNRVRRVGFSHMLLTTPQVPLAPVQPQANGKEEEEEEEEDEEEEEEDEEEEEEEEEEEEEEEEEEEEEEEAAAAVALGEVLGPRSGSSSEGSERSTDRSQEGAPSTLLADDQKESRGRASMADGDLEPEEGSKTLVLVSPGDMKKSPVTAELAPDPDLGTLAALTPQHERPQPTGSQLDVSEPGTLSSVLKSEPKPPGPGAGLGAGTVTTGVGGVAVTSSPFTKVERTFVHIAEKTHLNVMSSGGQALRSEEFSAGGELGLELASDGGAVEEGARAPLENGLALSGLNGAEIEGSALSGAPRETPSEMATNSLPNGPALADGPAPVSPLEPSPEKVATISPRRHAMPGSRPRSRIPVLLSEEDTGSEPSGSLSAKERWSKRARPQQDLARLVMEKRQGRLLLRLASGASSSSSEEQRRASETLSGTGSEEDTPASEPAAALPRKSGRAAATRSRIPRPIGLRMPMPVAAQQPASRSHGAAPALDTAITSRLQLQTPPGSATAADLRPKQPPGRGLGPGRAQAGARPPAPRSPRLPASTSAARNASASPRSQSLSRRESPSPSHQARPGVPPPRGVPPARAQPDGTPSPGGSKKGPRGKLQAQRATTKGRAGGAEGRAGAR

[5] = target: T5, panel of 374 wild-type kinases (Homo sapiens, UniProt Q8NEV4); conditions: MYO3A, read-out: % Enzyme Activity (relative to DMSO controls)
T5 construct: purchased Reaction Biology Corporation
T5 sequence (Q8NEV4 whole entry): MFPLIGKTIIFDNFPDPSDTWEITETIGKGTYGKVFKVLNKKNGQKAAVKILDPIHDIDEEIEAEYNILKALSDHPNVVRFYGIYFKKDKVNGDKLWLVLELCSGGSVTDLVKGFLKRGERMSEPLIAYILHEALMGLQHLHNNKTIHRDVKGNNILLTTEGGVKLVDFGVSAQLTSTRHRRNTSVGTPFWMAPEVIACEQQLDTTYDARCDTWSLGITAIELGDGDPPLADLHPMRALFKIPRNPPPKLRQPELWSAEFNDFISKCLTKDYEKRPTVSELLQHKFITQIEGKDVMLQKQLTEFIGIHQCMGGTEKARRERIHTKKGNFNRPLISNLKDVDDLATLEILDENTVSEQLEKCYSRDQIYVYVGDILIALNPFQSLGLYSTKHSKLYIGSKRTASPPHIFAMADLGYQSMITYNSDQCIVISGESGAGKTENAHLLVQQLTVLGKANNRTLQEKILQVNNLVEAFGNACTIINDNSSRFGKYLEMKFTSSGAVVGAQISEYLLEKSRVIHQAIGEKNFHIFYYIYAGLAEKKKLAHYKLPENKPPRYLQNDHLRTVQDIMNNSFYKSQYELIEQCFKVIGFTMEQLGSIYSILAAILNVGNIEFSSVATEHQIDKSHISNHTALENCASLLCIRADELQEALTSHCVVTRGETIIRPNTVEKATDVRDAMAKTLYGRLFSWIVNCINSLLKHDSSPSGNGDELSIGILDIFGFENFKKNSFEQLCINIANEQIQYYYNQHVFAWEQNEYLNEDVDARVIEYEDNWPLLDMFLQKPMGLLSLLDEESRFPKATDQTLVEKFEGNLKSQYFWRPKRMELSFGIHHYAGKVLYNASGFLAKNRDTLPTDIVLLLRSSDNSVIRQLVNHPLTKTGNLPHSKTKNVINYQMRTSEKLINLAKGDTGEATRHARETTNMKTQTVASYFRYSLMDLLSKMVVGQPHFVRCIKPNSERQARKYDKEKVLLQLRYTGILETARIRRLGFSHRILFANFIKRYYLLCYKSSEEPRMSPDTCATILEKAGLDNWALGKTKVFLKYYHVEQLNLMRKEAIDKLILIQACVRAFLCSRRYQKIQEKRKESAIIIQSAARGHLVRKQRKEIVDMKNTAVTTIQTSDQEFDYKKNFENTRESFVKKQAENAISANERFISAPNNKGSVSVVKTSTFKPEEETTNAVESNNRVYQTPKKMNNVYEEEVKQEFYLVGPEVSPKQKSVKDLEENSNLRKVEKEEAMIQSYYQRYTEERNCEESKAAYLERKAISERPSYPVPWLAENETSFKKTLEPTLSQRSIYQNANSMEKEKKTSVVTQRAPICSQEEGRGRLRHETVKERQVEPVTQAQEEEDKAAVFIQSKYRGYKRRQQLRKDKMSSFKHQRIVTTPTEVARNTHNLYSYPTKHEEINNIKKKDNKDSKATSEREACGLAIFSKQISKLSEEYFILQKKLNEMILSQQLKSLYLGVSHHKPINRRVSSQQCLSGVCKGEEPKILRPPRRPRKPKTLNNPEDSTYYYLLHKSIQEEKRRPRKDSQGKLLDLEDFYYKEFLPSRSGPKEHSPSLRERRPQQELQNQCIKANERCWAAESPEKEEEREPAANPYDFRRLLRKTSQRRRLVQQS

[6] = target: T6, panel of 374 wild-type kinases (Homo sapiens, UniProt Q96PF2); conditions: read-out: % Enzyme Activity (relative to DMSO controls), kinase TSSK2
T6 construct: purchased Reaction Biology Corporation
T6 sequence (Q96PF2 1-358): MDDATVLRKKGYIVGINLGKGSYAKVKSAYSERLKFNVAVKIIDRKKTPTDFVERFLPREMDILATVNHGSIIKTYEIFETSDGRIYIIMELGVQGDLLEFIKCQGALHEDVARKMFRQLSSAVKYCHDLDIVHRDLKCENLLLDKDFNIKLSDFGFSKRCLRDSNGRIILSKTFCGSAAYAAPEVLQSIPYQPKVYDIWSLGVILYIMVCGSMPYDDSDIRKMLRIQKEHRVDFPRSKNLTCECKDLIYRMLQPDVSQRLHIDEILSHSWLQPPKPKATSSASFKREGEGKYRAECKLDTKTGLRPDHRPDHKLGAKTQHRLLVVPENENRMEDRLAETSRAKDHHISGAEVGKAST

[7] = target: T7, panel of 374 wild-type kinases (Homo sapiens, UniProt Q9UKI8); conditions: read-out: % Enzyme Activity (relative to DMSO controls), kinase TLK1
T7 construct: purchased Reaction Biology Corporation
T7 sequence (Q9UKI8 1-766): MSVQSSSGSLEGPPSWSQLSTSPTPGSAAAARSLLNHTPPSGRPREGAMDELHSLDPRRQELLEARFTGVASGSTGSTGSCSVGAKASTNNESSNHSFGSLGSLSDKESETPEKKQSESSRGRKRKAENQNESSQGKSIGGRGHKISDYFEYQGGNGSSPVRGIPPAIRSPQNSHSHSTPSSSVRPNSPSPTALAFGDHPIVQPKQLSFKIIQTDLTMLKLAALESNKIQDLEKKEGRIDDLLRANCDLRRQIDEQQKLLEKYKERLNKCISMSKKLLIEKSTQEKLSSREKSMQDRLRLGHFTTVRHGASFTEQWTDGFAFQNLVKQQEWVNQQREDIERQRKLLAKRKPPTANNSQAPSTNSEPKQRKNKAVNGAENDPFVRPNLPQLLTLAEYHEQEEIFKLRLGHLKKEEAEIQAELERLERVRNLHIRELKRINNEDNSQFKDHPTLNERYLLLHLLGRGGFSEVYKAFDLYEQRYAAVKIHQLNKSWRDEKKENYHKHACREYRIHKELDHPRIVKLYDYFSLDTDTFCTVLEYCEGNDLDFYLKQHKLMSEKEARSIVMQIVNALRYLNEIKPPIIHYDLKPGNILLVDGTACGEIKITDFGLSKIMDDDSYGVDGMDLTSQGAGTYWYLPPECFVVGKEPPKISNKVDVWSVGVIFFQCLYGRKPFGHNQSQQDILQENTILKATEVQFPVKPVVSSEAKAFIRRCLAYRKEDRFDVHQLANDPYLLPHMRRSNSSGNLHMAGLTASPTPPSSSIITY

Row | Structure (SMILES) | remaining activity at 5 µM [1] | remaining activity at 5 µM [2] | remaining activity at 5 µM [3] | remaining activity at 5 µM [4] | remaining activity at 5 µM [5] | remaining activity at 5 µM [6] | remaining activity at 5 µM [7] | remaining activity at 10 µM ([1]; 10 uM) | remaining activity at 10 µM ([2]; 10 uM) | remaining activity at 10 µM ([3]; 10 uM) | remaining activity at 10 µM ([4]; 10 uM) | remaining activity at 10 µM ([5]; 10 uM) | remaining activity at 10 µM ([6]; 10 uM) | remaining activity at 10 µM ([7]; 10 uM)
1 | O=C(Nc1cnn(-c2csc(C(=O)NC3COC3)c2)c1)Nc1c(F)cccc1Cl [Compound 25, 4-(4-(3-(2-chloro-6-fluorophenyl)ureido)-1H-pyrazol-1-yl)-N-(oxetan-3-yl)thiophene-2-carboxamide] | 96.6% | 95.6% | 96.6% | 82.3% | 82.8% | 95.1% | 53.4% |  |  |  |  |  |  | 
2 | O=C(Nc1cnn(-c2csc(C(=O)NC3COC3)c2)c1)Nc1ccccc1Cl [Compound 17, 4-(4-(3-(2-chlorophenyl)ureido)-1H-pyrazol-1-yl)-N-(oxetan-3-yl)thiophene-2-carboxamide] | 99.3% | 83.5% | 99.8% | 97.2% | 94.5% | 91.5% | 105% |  |  |  |  |  |  | 
3 | Cc1sc(C(=O)NC2COC2)cc1-n1cc(NC(=O)Nc2c(F)cccc2Cl)cn1 [Compound 27, 4-(4-(3-(2-chloro-6-fluorophenyl)ureido)-1H-pyrazol-1-yl)-5-methyl-N-(oxetan-3-yl)thiophene-2-carboxamide] |  |  |  |  |  |  |  | 107% | 110% | 111% | 113% | 91.1% | 84.7% | 105%
